# Read-outs that look alike come from different tables or passages of the source.
# Legend:
# [1] = molecular target: reactive cysteine sites of other proteins in A549 cells (Homo sapiens, UniProt P04080); conditions: 4 h, P04080_C3 Cystatin-B
# Text: (§1) Further, the samples were digested with tosylsulfonyl phenylalanyl chloromethyl ketone (TPCK)-treated trypsin and endoGluC to increase the coverage of protein sequences, especially the PARK7 peptide containing Cys106 residue. Peptides generated by digestion from replicates of each sample were labeled using TMT16-plex to perform tandem mass tag (TMT)-based quantitative proteomics profiling. Following the TMT labeling, all samples were pooled and the peptides conjugated to the DBIA probe were enriched by streptavidin beads and analyzed by LC-MS/MS (Figure 3A). […] All cysteines were represented with the shortest peptide by using the average CR values of all the peptides with the same modified cysteine from the same protein in the same condition.[16],[27],[28]
# (§2) A549 cells were seeded into 10 cm plates in 10 mL of media. […] The cells were then washed two times with cold PBS (1 mL per 10 cm plate) and collected by scraping them with a cell scraper. Cells were lysed by sonication in ice-cold PBS and centrifuged at 15,000 rpm for 2 min to remove cell debris. The BCA Gold protein assay (Thermo Fisher Scientific) was performed to determine protein concentration. Each sample (100 μg) was labeled with 500 μM DBIA probe for 1 h in the dark at room temperature (RT). Excess DBIA and disulfide bonds were quenched and reduced, respectively, using 5 mM dithiothreitol (DTT) for 30 min in the dark at RT. Reduced disulfide bonds were alkylated using 20 mM iodoacetamide for 30 min in the dark at RT. […] Digested peptides were labeled with TMTpro16-plex reagents (Thermo Fisher Scientific) in a 1:4 ratio by mass (peptides/TMT reagents) for 1 h at RT. Excess TMT reagent was quenched with 5 μL 6% hydroxylamine for 15 min at RT. All samples were then pooled and lyophilized.
# (§3) Nonspecific binding peptides were washed away using the following procedure: 3 × 1 mL of PBS pH 7.4, 2 × 1 mL of PBS with 0.1% SDS pH 7.4, and 3 × 1 mL of HPLC-grade water. DBIA probe-containing peptides were eluted using 700 μL of 50% acetonitrile in 0.1% TFA, lyophilized using a Speedvac, and desalted using a handmade mini-SPE column (10% sorbent material of a Waters, OASIS 1 cm^3 HLB 30 mg cartridge). Column was equilibrated with 200 μL of 90% acetonitrile and 3 × 200 μL of 10 mM NH4HCO3 pH 8.4. The dried sample was dissolved in 200 μL of 10 mM NH4HCO3 pH 8.4, loaded onto the column, washed 3x with 200 μL of 10 mM NH4HCO3 pH 8.4, and eluted into 3 fractions with 150 μL of 10, 20, and 50% acetonitrile (in 10 mM NH4HCO3). Samples were then lyophilized.
# (§4) 2.2.04 (www.matrixscience.com) for protein identification. Mascot searches were done with 10 ppm and 0.02 Da deviation for the precursor and fragment mass, respectively, and the enzymes trypsin and EndoGluC was specified, up to three missed cleavages were allowed. Methionine oxidation, acetyl (protein N-term), and DBIA on Cys were set as a variable modification. Carbamidomethyl on Cys and TMTpro on Lys and N-term were set as a fixed modification. Peptides with an FDR <1% were accepted. Peptides were only retained, if they were quantified and if there was exactly one DBIA modification on the peptide. The values for each TMT channel were normalized to the average of the values for the DMSO samples for the same peptide, and these values were named CR. For each peptide, the first entry of the Master Protein Accessions column was chosen as the Master Protein Accession, and the residue number of the cysteine modified by DBIA within the entire protein sequence was determined. Using this information, each peptide was assigned an identifier consisting of the Master Protein Accession and the residue number of the modified cysteine to assign each peptide to the respective modified cysteine residue. Within each replicate, CR values for all peptides with the same identifier (and thus the same modified cysteine residue) were combined by averaging and only the shortest Annotated Sequence was kept as the final Annotated Sequence.
# [2] = molecular target: T1, reactive cysteine sites of other proteins in A549 cells (Homo sapiens, UniProt O60664); conditions: 4 h, O60664_C39 Perilipin-3
# T1 sequence (O60664 1-434): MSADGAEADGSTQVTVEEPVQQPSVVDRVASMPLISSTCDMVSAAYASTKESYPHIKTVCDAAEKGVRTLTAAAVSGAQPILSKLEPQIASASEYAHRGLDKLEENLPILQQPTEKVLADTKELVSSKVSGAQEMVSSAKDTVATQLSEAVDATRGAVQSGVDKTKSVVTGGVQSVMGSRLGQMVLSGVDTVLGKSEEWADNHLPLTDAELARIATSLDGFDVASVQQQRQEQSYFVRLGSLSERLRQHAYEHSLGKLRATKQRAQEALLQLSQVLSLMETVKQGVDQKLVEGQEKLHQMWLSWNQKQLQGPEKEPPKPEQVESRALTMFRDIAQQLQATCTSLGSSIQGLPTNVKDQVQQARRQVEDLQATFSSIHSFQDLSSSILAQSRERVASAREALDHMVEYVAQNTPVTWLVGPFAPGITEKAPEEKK
# Text: as §1, §2, §3, §4
# [3] = molecular target: reactive cysteine sites of other proteins in A549 cells (Homo sapiens, UniProt P40222); conditions: 4 h, P40222_C87 Alpha-taxilin
# Sequence of reactive cysteine sites of other proteins in A549 cells (Homo sapiens, UniProt P40222) (P40222 whole entry): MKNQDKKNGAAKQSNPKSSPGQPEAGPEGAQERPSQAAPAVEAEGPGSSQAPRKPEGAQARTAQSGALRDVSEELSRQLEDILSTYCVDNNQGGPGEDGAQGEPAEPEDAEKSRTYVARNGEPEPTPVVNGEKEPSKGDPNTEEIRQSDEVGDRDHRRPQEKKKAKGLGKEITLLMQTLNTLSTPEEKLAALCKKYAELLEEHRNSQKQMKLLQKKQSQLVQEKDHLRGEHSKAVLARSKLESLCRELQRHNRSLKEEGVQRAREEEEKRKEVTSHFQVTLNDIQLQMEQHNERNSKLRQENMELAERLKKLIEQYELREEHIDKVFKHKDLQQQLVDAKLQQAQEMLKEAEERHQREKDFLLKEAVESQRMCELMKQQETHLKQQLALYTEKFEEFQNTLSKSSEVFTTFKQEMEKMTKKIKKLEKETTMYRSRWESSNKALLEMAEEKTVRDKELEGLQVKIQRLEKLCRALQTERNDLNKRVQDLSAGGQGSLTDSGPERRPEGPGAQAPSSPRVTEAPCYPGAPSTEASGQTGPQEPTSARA
# Text: as §1, §2, §3, §4
# [4] = molecular target: reactive cysteine sites of other proteins in A549 cells (Homo sapiens, UniProt Q13085); conditions: 4 h, Q13085_C1297 Acetyl-CoA carboxylase 1
# Text: as §1, §2, §3, §4
# Sequence of reactive cysteine sites of other proteins in A549 cells (Homo sapiens, UniProt P04080) (P04080 whole entry): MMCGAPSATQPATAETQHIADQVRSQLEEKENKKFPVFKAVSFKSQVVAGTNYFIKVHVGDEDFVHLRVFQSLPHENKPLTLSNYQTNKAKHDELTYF
smiles,measurement,setting,value
"N#CN1CC[C@@H](C(=O)Nc2nc3c(s2)CN(C(=O)c2cc(-n4ccnn4)ccc2F)CC3)C1 [Compound 84, (R)-1-Cyano-N-(5-(2-fluoro-5-(1H-1,2,3-triazol-1-yl)benzoyl)-4,5,6,7-tetrahydrothiazolo[5,4-c]pyridin-2-yl)pyrrolidine-3-carboxamide]",Average log2 CR (DMSO/inhibitor),"[1]; A549, 0.5 µM",0.9051
same,Average log2 CR (DMSO/inhibitor),"[1]; A549, 5 µM",1.676
same,Average log2 CR (DMSO/inhibitor),"[2]; A549, 0.5 µM",0.4419
same,Average log2 CR (DMSO/inhibitor),"[2]; A549, 5 µM",1.439
same,Average log2 CR (DMSO/inhibitor),"[3]; A549, 0.5 µM",0.7392
same,Average log2 CR (DMSO/inhibitor),"[3]; A549, 5 µM",1.414
same,Average log2 CR (DMSO/inhibitor),"[4]; A549, 0.5 µM",0.6874
same,Average log2 CR (DMSO/inhibitor),"[4]; A549, 5 µM",1.886

# From publication PMC11129182, “Development of Inhibitors, Probes, and PROTAC Provides a Complete Toolbox to Study PARK7 in the Living Cell” (Journal of Medicinal Chemistry, 2024)
